# Results as given in patent publication US6552022B1, “Benzamide derivatives and their use as ApoB-100 secretion inhibitors” (SmithKline Beecham Corporation, priority 1998, dated 2003).
# System: apoB-100
# Assay: Inhibition of apoB-100 secretion by primary human hepatocytes (35S-methionine labelling, SDS PAGE, Phosphorimager)
# Type: cell-based
# Details: 8 hours incubation, tested from 1 μM to 1.6 nM, secretion of radiolabeled apoB-100, untreated cells as controls
# Description: The ability of the compounds of the invention to inhibit the production of apoB-100 by human hepatocytes in vitro is determined using primary human hepatocytes as a model system. The specificity of the compounds of the invention is established by comparing the effects on apoB-100, apoprotein A-1, and fibrinogen production. A specificity of at least 100 is preferred.
# Primary human hepatocytes were seeded at 50 000 cells/well in 96 well plates. After an overnight adhesion phase, cells were incubated with compounds for 8 hours in RPMI medium containing 1% FCS, 4 μg/ml insulin, 100 nM dexamethasone and 50 μCi/ml ^35S-methionine. […] Production of radiolabeled apoB-100 and apoA-1 (used as a selectivity control) was quantified by analysis of supermatants using SDS AGE and exposure of gels onto Phosphorimager screens. Inhibition of apo-100 and apoA-1 secretion by compounds was calculated taking untreated cells as controls, and IC50 of each compound was determined on both apoproteins.
row,Structure (SMILES),IC50 [nM]
1,Cc1ccc(C(=O)Nc2ccc(N3CCN(Cc4cccc(-c5nc(C)no5)c4)CC3)cc2)c(-c2ccc(C(C)C)cc2)c1 [Example 6],18
2,"COc1cccc(C(=O)Nc2ccc(N3CCN(Cc4cccc(C#N)c4)CC3)cc2)c1-c1ccc(C(C)C)cc1 [Example 3, 4′-Isopropyl-6-methoxy-biphenyl-2-carboxylic Acid [4-[4-(3-cyano-benzyl)-piperazin-1-yl]-phenyl]-amide]",13
3,"O=C(Nc1ccc(N2CCN(Cc3ccc[nH]3)CC2)cc1)c1ccccc1-c1ccc(C(F)(F)F)cc1 [Example 62, 4′-Trifluormethyl-biphenyl-2-carboxylic Acid [4-(4-(1H-pyrrol-2-ylmethyl)-piperazin-1-yl)-phenyl)-amide]",10
4,"Cc1ccc(C(=O)Nc2ccc(N3CCN(Cc4ccc[nH]4)CC3)cc2)c(-c2ccc(C(C)C)cc2)c1 [Example 63, 4′-Isopropyl-5-methyl-biphenyl-2-carboxylic Acid [4-(4-(1H-pyrrol-2-ylmethyl)-25 piperazin-1-yl)-phenyl]-amide]",20
5,Cc1cccc(C(=O)Nc2ccc(N3CCN(Cc4cccc(C#N)c4)CC3)cc2)c1-c1ccc(C(C)C)cc1 [Example 4],12

# Same assay, conditions: Homo sapiens, Hepatocyte, 8 h, 8 hours incubation, tested from 1 μM to 1.6 nM, secretion of radiolabeled apoB-100, untreated cells as controls
row,Structure (SMILES),IC50 [nM]
1,"Cc1cccc(C(=O)Nc2ccc(N3CCN(Cc4cccc(C#N)c4)CC3)cc2)c1-c1ccc(C(F)(F)F)cc1 [Example 5, 6-Methyl-4′-trifluoromethyl-biphenyl-2-carboxylic Acid [4-[4-(3-cyano-benzyl)-piperazin-1-yl]-phenyl]-amide]",15
2,"Cc1ccc(C(=O)Nc2ccc(N3CCN(Cc4ccc[nH]4)CC3)cc2)c(-c2ccc(C(F)(F)F)cc2)c1 [Example 64, 5-Methyl-4′-trifluoromethyl-biphenyl-2-carboxylic Acid [4-(4-(1H-pyrrol-2-ylmethyl)-piperazin-1-yl)-phenyl]-amide]",19
3,"COc1cccc(C(=O)Nc2ccc(N3CCN(Cc4cccc(C#N)c4)CC3)cc2)c1-c1ccc(C(C)C)cc1 [Example 3, 4′-Isopropyl-6-methoxy-biphenyl-2-carboxylic Acid [4-[4-(3-cyano-benzyl)-piperazin-1-yl]-phenyl]-amide]",18
4,"Cc1ccc(C(=O)Nc2ccc(N3CCN(Cc4cccc(C#N)c4)CC3)cc2)c(-c2ccc(C(C)C)cc2)c1 [Example 2, 4′-Isopropyl-5-methyl-biphenyl-2-carboxylic Acid [4-[4-(3-cyano-benzyl)-piperazin-1-yl]-phenyl]-amide]",18

# System: not given
# Assay: not given
# Details: not given
row,melting point [°C],Structure (SMILES)
1,192,"Cc1cccc(C(=O)Nc2ccc(N3CCN(Cc4cccc(C#N)c4)CC3)cc2)c1-c1ccc(C(F)(F)F)cc1 [Example 5, 6-Methyl-4′-trifluoromethyl-biphenyl-2-carboxylic Acid [4-[4-(3-cyano-benzyl)-piperazin-1-yl]-phenyl]-amide]"
2,179,"COc1cccc(C(=O)Nc2ccc(N3CCN(Cc4cccc(C#N)c4)CC3)cc2)c1-c1ccc(C(C)C)cc1 [Example 3, 4′-Isopropyl-6-methoxy-biphenyl-2-carboxylic Acid [4-[4-(3-cyano-benzyl)-piperazin-1-yl]-phenyl]-amide]"
3,133 to 134,"N#Cc1cccc(CN2CCN(c3ccc(NC(=O)c4ccccc4Oc4ccccc4)cc3)CC2)c1 (hydrate or solvate) [Example 14, N-[4-[4-(3-Cyano-benzyl)-piperazin-1-yl]-phenyl]-2-phenoxy-benzamide]"
4,151 to 155,COc1ccc(-c2ccc(C(F)(F)F)cc2)c(C(=O)Nc2ccc(N3CCN(Cc4cccc(C#N)c4)CC3)cc2)c1
5,209 to 211,"N#Cc1cccc(CN2CCN(c3ccc(NC(=O)c4ccccc4-c4ncc(-c5ccccc5)o4)cc3)CC2)c1 (hydrate or solvate) [Example 15, N-[4-[4-(3-Cyano-benzyl)-piperazin-1-yl]-phenyl]-2-(5-phenyl-oxazol-2-yl)-benzamide]"
6,167 to 169,"Cc1ccc(C(=O)Nc2ccc(N3CCN(Cc4cccc(C#N)c4)CC3)cc2)c(-c2ccc(C(C)C)cc2)c1 [Example 2, 4′-Isopropyl-5-methyl-biphenyl-2-carboxylic Acid [4-[4-(3-cyano-benzyl)-piperazin-1-yl]-phenyl]-amide]"
7,169 to 171,"N#Cc1cccc(CN2CCN(c3ccc(NC(=O)c4ccccc4-c4ccccn4)cc3)CC2)c1 [Example 86, N-{4-[4-(3-Cyano-benzyl)-piperazin-1-yl]-phenyl}-2-pyridin-2-yl-benzamide]"
8,102 to 104,"COc1cccc(C(=O)Nc2ccc(N3CCN(Cc4cccc(C#N)c4)CC3)cc2)c1OCCC1CCCCC1 [Example 31, N-[4-[4-(3-Cyano-benzyl)-piperazin-1-yl]-phenyl]-2-(2-cyclohexyl-ethoxy)-3-methoxy-benzamide]"
9,118 to 120,"Cn1ccnc1CN1CCN(c2ccc(NC(=O)c3ccccc3-c3ccc(C(F)(F)F)cc3)cc2)CC1 [Example 60, 4′-Trifluoromethyl-biphenyl-2-carboxylic acid [4-[4-(1-methyl-1H-imidazol-2-ylmethyl)-piperazin-1-yl)-phenyl]-amide]"
10,119 to 121,"N#Cc1cccc(CN2CCN(c3ccc(NC(=O)c4ccccc4OCCC4CCCCC4)cc3)CC2)c1 [Example 32, N-[4-[4-(3-Cyano-benzyl)-piperazin-1-yl]-phenyl]-2-(2-cyclohexyl-ethoxy)-benzamide]"
11,181 to 183,"CC(=O)c1cccc(CN2CCN(c3ccc(NC(=O)c4ccccc4-c4ccc(C(F)(F)F)cc4)cc3)CC2)c1 [Example 66, 4′-Trifluoromethyl-biphenyl-2-carboxylic acid [4-(4-(3-acetyl-benzyl)-piperazin-1-yl)-phenyl]-amide]"
12,188 to 190,"CC(C)c1ccc(-c2cc(Cl)ccc2C(=O)Nc2ccc(N3CCN(Cc4cccc(C#N)c4)CC3)cc2)cc1 [Example 7, 5-Chloro-4′-isopropyl-biphenyl-2-carboxylic acid [4-[4-(3-cyano-benzyl)-piperazin-1-yl]-phenyl]-amide]"
13,124 to 128,COc1ccc(-c2ccccc2C(=O)Nc2ccc(N3CCN(Cc4cccc(C#N)c4)CC3)cc2)cc1
14,198 to 200,"O=C(Nc1ccc(N2CCN(Cc3ccc(F)cc3)CC2)cc1)c1ccccc1-c1ccc(C(F)(F)F)cc1 [Example 52, 4′-Trifluoromethyl-biphenyl-2-carboxylic acid [4-[4-(4-fluoro-benzyl)-piperazin-1-yl]-phenyl]-amide]"
15,140 to 144,Cc1ccc(-c2ccccc2C(=O)Nc2ccc(N3CCN(Cc4cccc(C#N)c4)CC3)cc2)cc1C

# Continued, compound first:
row,Structure (SMILES),melting point [°C]
1,"Cc1ccc(C(=O)Nc2ccc(N3CCN(Cc4ccc[nH]4)CC3)cc2)c(-c2ccc(C(F)(F)F)cc2)c1 [Example 64, 5-Methyl-4′-trifluoromethyl-biphenyl-2-carboxylic Acid [4-(4-(1H-pyrrol-2-ylmethyl)-piperazin-1-yl)-phenyl]-amide]",196 to 198
2,O=C(Nc1ccc(N2CCN(Cc3ccncc3)CC2)cc1)c1ccccc1-c1ccc(C(F)(F)F)cc1,194 to 196
3,"O=C(Nc1ccc(N2CCN(Cc3c[nH]c4ccc(F)cc34)CC2)cc1)c1ccccc1-c1ccc(C(F)(F)F)cc1 [Example 73, 4′-Trifluoromethyl-biphenyl-2-carboxylic acid {4-[4-(5-fluoro-1H-indol-3-ylmethyl)-piperazin-1-yl]-phenyl}-amide]",168 to 170
4,"CCOC(=O)CN1CCN(c2ccc(NC(=O)c3ccccc3-c3ccc(C(F)(F)F)cc3)cc2)CC1 [Example 42, 4′-Trifluoromethyl-biphenyl-2-carboxylic acid [4-(4-ethoxycarbonylmethyl-piperazin-1-yl)-phenyl)-amide]",167 to 169
5,"O=C(Nc1ccc(N2CCN(Cc3ccc4c(c3)OCO4)CC2)cc1)c1ccccc1-c1ccc(C(F)(F)F)cc1 [Example 48, 4′-Trifluoromethyl-biphenyl-2-carboxylic acid [4-(4-(3,4-methylenedioxy-benzyl)-piperazin-1-yl)-phenyl]-amide]",189 to 191
6,"O=C(Nc1ccc(N2CCN(CCCO)CC2)cc1)c1ccccc1-c1ccc(C(F)(F)F)cc1 [Example 44, 4′-Trifluoromethyl-biphenyl-2-carboxylic acid [4-(4-(3-hydroxy-propyl)-piperazin-1-yl]-phenyl]-amide]",208 to 210
7,"O=C(Nc1ccc(N2CCN(Cc3ccco3)CC2)cc1)c1ccccc1-c1ccc(C(F)(F)F)cc1 [Example 67, 4′-Trifluoromethyl-biphenyl-2-carboxylic acid [4-(4-furan-2-ylmethyl-piperazin-1-yl)-phenyl]-amide]",173 to 175
8,"O=C(CN1CCN(c2ccc(NC(=O)c3ccccc3-c3ccc(C(F)(F)F)cc3)cc2)CC1)NCc1cccc(-c2ccccc2)c1 [Example 77, 4′-Trifluoromethyl-biphenyl-2-carboxylic Acid [4-(4{[(biphenyl-3-ylmethyl)-carbamoyl]-methyl}piperazin-1-yl)-phenyl]-amide]",165 to 167
